This note sets out measurements from patent US20090036450A1, “PYRAZOLE COMPOUNDS AND USE THEREOF” (JAPAN TOBACCO, INC., priority 2006, published 2009).

The assay addresses T1, human liver glycogen phosphorylase (Homo sapiens, UniProt P06737).
T1 construct: made in house; host or cells: Sf9 insect cells (suspension of disrupted cells, diluted in BES buffer, not purified)
T1 sequence (P06737 1-847): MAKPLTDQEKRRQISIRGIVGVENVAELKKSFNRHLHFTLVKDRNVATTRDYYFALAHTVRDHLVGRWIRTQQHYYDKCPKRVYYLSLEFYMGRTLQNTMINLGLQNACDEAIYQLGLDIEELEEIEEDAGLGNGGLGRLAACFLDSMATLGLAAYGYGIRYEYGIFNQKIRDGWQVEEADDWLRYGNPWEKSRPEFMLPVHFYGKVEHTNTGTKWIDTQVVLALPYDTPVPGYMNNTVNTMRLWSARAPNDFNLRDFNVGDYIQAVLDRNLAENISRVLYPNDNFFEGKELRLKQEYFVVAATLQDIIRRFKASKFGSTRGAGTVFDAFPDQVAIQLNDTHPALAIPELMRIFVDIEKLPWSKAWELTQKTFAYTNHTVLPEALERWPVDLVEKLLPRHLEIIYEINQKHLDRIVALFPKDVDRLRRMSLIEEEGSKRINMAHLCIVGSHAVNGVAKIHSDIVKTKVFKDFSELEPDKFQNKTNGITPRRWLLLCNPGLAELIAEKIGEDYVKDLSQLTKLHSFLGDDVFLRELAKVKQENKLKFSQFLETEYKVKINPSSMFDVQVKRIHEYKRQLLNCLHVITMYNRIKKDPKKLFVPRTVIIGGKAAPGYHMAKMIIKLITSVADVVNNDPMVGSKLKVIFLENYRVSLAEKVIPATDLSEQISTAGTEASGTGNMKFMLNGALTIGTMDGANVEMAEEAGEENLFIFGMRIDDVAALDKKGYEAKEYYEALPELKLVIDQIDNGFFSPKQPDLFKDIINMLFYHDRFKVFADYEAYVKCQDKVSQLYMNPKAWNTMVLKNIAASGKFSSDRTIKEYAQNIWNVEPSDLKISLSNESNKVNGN
Put plainly: Liver glycogen phosphorylase activity, forward reaction system (NADPH detection at 340 nm). The format is biochemical. Conditions: enzyme inhibitory activity against recombinant human liver glycogen phosphorylase (Sf9 cell lysate), room temperature, 75 minutes. How it is done: The glycogen phosphorylase activity was determined by a method using a forward reaction system.
The following method was used to determine the glycogen phosphorylase activity using a forward reaction system. Glucose-1-phosphate generated from glycogen by glycogen phosphorylase was converted to glucono-δ-lactone-6-phosphate by transphosphorylation and dehydrogenation reactions using phosphoglucomutase and glucose-6-phosphate dehydrogenase (G6PDH). At this time, NADPH generated from NADP in the dehydrogenation reaction by G6PDH was detected.
An enzyme solution of human liver glycogen phosphorylase was obtained by diluting with 100 mmol/L BES buffer (pH 6.8, containing 2 mmol/L EDTA) a suspension disrupted Sf9 cells in which a recombinant human liver glycogen phosphorylase was forcibly expressed. Phosphate buffer (16 mmol/L KH2PO4, containing 24 mmol/L Na2HPO4) was used as a substrate solution. A mixture of 8 U/mL phosphoglucomutase and 60 U/mL G6PDH was prepared with BES buffer. A reaction buffer (1.4 mmol/L NADP, 30 mmol/L MgCl2, 8 μmol/L glucose-1,6-diphosphate, 8 mg/mL glycogen, 40 mmol/L BES, containing 0.8 mmol/L EDTA) and a glucose solution (75 mmol/L glucose and 100 mmol/L BES, containing 2 mmol/L EDTA) were prepared. A test substance was dissolved in 1% DMSO aqueous solution.
To a mixture of the glucose solution (20 μL), the substrate solution (20 μL), the reaction buffer (100 μL), and the test substance (20 μL), the recombinant human liver glycogen phosphorylase solution (20 μL), and a mixture (20 μL) of phosphoglucomutase and G6PDH were added to initiate an enzymatic reaction. To a control, 1% DMSO aqueous solution was added instead of the test substance. A solution to which the substrate was not added was used as a blank. After initiation of the reaction, absorbance at 340 nm was measured immediately. The reaction was performed at room temperature for 75 minutes, and then absorbance at 340 nm was measured again. The enzyme activity was obtained by deducting the change in absorbance of the blank for 75 minutes from the change in absorbance over 75 minutes. The inhibition rate (%) of the test substance was calculated by “(1−(enzyme activity of test substance)/(enzyme activity of control))×100”.
“IC50” represents an enzyme inhibitory activity against human liver glycogen phosphorylase.

Turning to `CCOC(=O)c1ccc(CNC(=O)c2cc(NC(=O)c3cc(F)c(F)cc3Cl)[nH]n2)o1` [Example 1-1, 5-(2-chloro-4,5-difluoro-benzoylamino)-1H-pyrazole-3-carboxylic acid (5-ethoxycarbonyl-furan-2-ylmethyl)-amide], the IC50 was less than 100 nM.

For `CCN(CC)S(=O)(=O)c1ccsc1CNC(=O)c1cc(NC(=O)c2cc(F)c(F)cc2Cl)[nH]n1` [Example 1-2, 5-(2-chloro-4,5-difluoro-benzoylamino)-1H-pyrazole-3-carboxylic acid (3-diethylsulfamoyl-thiophen-2-ylmethyl)-amide], the IC50 was 100 to 300 nM.

Take `O=C(NCc1sccc1OCc1ccccc1)c1cc(NC(=O)c2cc(F)c(F)cc2Cl)[nH]n1` [Example 1-3, 5-(2-chloro-4,5-difluoro-benzoylamino)-1H-pyrazole-3-carboxylic acid (3-benzyloxy-thiophen-2-ylmethyl)-amide]: the 50% inhibitory concentration (IC50) was 100 to 300 nM.

In the case of `Cc1nc(-c2ccc(CNC(=O)c3cc(NC(=O)c4cc(F)c(F)cc4Cl)[nH]n3)s2)cs1` [Example 1-4, 5-(2-chloro-4,5-difluoro-benzoylamino)-1H-pyrazole-3-carboxylic acid [5-(2-methyl-thiazol-4-yl)-thiophen-2-ylmethyl]-amide], the IC50 was less than 100 nM.

As to `O=C(NCc1csc(-c2ccc(Cl)cc2)n1)c1cc(NC(=O)c2cc(F)c(F)cc2Cl)[nH]n1` [Example 1-5, 5-(2-chloro-4,5-difluoro-benzoylamino)-1H-pyrazole-3-carboxylic acid [2-(4-chloro-phenyl)-thiazol-4-ylmethyl]-amide], the 50% inhibitory concentration (IC50) was less than 100 nM.

`Cc1nc(-c2ccc(C(F)(F)F)cc2)sc1CNC(=O)c1cc(NC(=O)c2cc(F)c(F)cc2Cl)[nH]n1` [Example 1-6, 5-(2-chloro-4,5-difluoro-benzoylamino)-1H-pyrazole-3-carboxylic acid [4-methyl-2-(4-trifluoromethyl-phenyl)-thiazol-5-ylmethyl]-amide]: the IC50 is 100 to 300 nM.

For `Cc1ccc(-c2nc(C)c(CNC(=O)c3cc(NC(=O)c4cc(F)c(F)cc4Cl)[nH]n3)s2)s1` [Example 1-7, 5-(2-chloro-4,5-difluoro-benzoylamino)-1H-pyrazole-3-carboxylic acid [4-methyl-2-(5-methyl-thiophen-2-yl)-thiazol-5-ylmethyl]-amide], the IC50 was less than 100 nM.

With `Cc1nc(-c2ccc(Cl)s2)sc1CNC(=O)c1cc(NC(=O)c2cc(F)c(F)cc2Cl)[nH]n1` [Example 1-8, 5-(2-chloro-4,5-difluoro-benzoylamino)-1H-pyrazole-3-carboxylic acid [2-(5-chlorothiophen-2-yl)-4-methyl-thiazol-5-ylmethyl]-amide], the IC50 is less than 100 nM.

Regarding `Cc1nc(-c2cc3ccccc3s2)sc1CNC(=O)c1cc(NC(=O)c2cc(F)c(F)cc2Cl)[nH]n1` [Example 1-9, 5-(2-chloro-4,5-difluoro-benzoylamino)-1H-pyrazole-3-carboxylic acid (2-benzo[b]thiophen-2-yl-4-methyl-thiazol-5-ylmethyl)-amide], the IC50 was less than 100 nM.

Consider `CCOC(=O)c1nc(C)c(CNC(=O)c2cc(NC(=O)c3cc(F)c(F)cc3Cl)[nH]n2)s1` [Example 1-10, 5-(2-chloro-4,5-difluoro-benzoylamino)-1H-pyrazole-3-carboxylic acid (2-ethoxycarbonyl-4-methyl-thiazol-5-ylmethyl)-amide], for which the IC50 is less than 100 nM.

For the compound `Cc1nc(C23CC4CC(CC(C4)C2)C3)c(CNC(=O)c2cc(NC(=O)c3cc(F)c(F)cc3Cl)[nH]n2)s1` [Example 1-11, 5-(2-chloro-4,5-difluoro-benzoylamino)-1H-pyrazole-3-carboxylic acid (4-adamantan-1-yl-2-methyl-thiazol-5-ylmethyl)-amide], the IC50 was less than 100 nM.

Take `Cc1nc2c(s1)CN(C(=O)c1cc(NC(=O)c3cc(F)c(F)cc3Cl)[nH]n1)CC2` [Example 1-12]: the IC50 lay within 100 to 300 nM.

For the compound `CCOC(=O)c1[nH]c(CNC(=O)c2cc(NC(=O)c3cc(F)c(F)cc3Cl)[nH]n2)nc1C` [Example 1-13, 5-(2-chloro-4,5-difluoro-benzoylamino)-1H-pyrazole-3-carboxylic acid (5-ethoxycarbonyl-4-methyl-1H-imidazol-2-ylmethyl)-amide], the IC50 is less than 100 nM.

Regarding `Cc1onc(-c2ccc(C#N)cc2)c1CNC(=O)c1cc(NC(=O)c2cc(F)c(F)cc2Cl)[nH]n1` [Example 1-14, 5-(2-chloro-4,5-difluoro-benzoylamino)-1H-pyrazole-3-carboxylic acid [3-(4-cyano-phenyl)-5-methylisoxazol-4-ylmethyl]-amide], the IC50 was less than 100 nM.

In the case of `Cc1onc(-c2ccc(N(C)C)cc2)c1CNC(=O)c1cc(NC(=O)c2cc(F)c(F)cc2Cl)[nH]n1` [Example 1-15, 5-(2-chloro-4,5-difluoro-benzoylamino)-1H-pyrazole-3-carboxylic acid [3-(4-dimethylamino-phenyl)-5-methylisoxazol-4-ylmethyl]-amide], the IC50 was less than 100 nM.

Regarding `Cc1onc(-c2ccc(S(C)(=O)=O)cc2)c1CNC(=O)c1cc(NC(=O)c2cc(F)c(F)cc2Cl)[nH]n1` [Example 1-16, 5-(2-chloro-4,5-difluoro-benzoylamino)-1H-pyrazole-3-carboxylic acid [3-(4-methanesulfonyl-phenyl)-5-methylisoxazol-4-ylmethyl]-amide], the IC50 was less than 100 nM.

As for `Cc1onc(-c2ccccc2F)c1CNC(=O)c1cc(NC(=O)c2cc(F)c(F)cc2Cl)[nH]n1` [Example 1-17, 5-(2-chloro-4,5-difluoro-benzoylamino)-1H-pyrazole-3-carboxylic acid [3-(2-fluoro-phenyl)-5-methylisoxazol-4-ylmethyl]-amide], the IC50 lay in the range of 100 to 300 nM.

Take `Cc1cc(-c2onc(C)c2CNC(=O)c2cc(NC(=O)c3cc(F)c(F)cc3Cl)[nH]n2)no1` [Example 1-18, 5-(2-chloro-4,5-difluoro-benzoylamino)-1H-pyrazole-3-carboxylic acid (5,3′-dimethyl-[3,5′]biisoxazolyl-4′-ylmethyl)-amide]: the IC50 is less than 100 nM.

As to `Cc1cccc(-c2onc(C)c2CNC(=O)c2cc(NC(=O)c3cc(F)c(F)cc3Cl)[nH]n2)n1` [Example 1-19, 5-(2-chloro-4,5-difluoro-benzoylamino)-1H-pyrazole-3-carboxylic acid [3-methyl-5-(6-methyl-pyridin-2-yl)-isoxazol-4-ylmethyl]-amide], the IC50 is less than 100 nM.

On to `Cc1noc(-c2ccnc(Cl)c2)c1CNC(=O)c1cc(NC(=O)c2cc(F)c(F)cc2Cl)[nH]n1` [Example 1-20, 5-(2-chloro-4,5-difluoro-benzoylamino)-1H-pyrazole-3-carboxylic acid [5-(2-chloro-pyridin-4-yl)-3-methylisoxazol-4-ylmethyl]-amide], for which the IC50 is less than 100 nM.

For the compound `Cc1ccc(-c2onc(C)c2CNC(=O)c2cc(NC(=O)c3cc(F)c(F)cc3Cl)[nH]n2)cn1` [Example 1-21, 5-(2-chloro-4,5-difluoro-benzoylamino)-1H-pyrazole-3-carboxylic acid [3-methyl-5-(6-methyl-pyridin-3-yl)-isoxazol-4-ylmethyl]-amide], the IC50 is less than 100 nM.

Turning to `Cc1nc(C)c(-c2onc(C)c2CNC(=O)c2cc(NC(=O)c3cc(F)c(F)cc3Cl)[nH]n2)s1` [Example 1-22, 5-(2-chloro-4,5-difluoro-benzoylamino)-1H-pyrazole-3-carboxylic acid [5-(2,4-dimethyl-thiazol-5-yl)-3-methylisoxazol-4-ylmethyl]-amide], the IC50 is less than 100 nM.

By IC50 is commonly meant the concentration needed to halve the response being measured.
